One test has as its system S. typhimurium TA 1535. Put plainly: Oxygen uptake of S. typhimurium TA 1535 cultures in minimal histidine medium, oxygen electrode (mutagen screening). The test is classed as cell-based, Salmonella typhimurium. Particulars: flasks 3 and 4. The source says: In the device illustrated in FIG. 1, two conventional oxygen electrodes, 10, 11, of the Clark type are employed. […] Electrode 11, designated the test electrode, measures the respiration rate (O2 uptake) of the same fixed volume 13 and concentration of Ames test bacteria and media as the control electrode. In the second case, the media also contains the chemical to be evaluated. If the chemical is a carcinogen or mutagen, the O2 uptake of test electrode 11 will increase at a faster rate than that of the control. This occurs because the reversion rate, and thus the growth rate and O2 consumption rate will be higher in the test electrode 11 than in the control electrode 10. Conversely, if the chemical is not a carcinogen or a mutagen, the O2 uptake rates will be similar. Thus, by measuring the difference in O2 uptake rates between a control and a test electrode, the potential carcinogenicity and/or mutagenicity of a chemical can be evaluated. […]
The test organism, S. typhimurium TA 1535 is grown overnight, washed three times in phosphate buffer and resuspended to give OD of 0.8 (>10^8 per ml). […] At zero, four, and 32 hours, 1 ml of culture is added to 2 ml of aerated minimal glucose media in the test chamber of an oxygen electrode and the rate of oxygen uptake is measured.

In another test the test system is S. typhimurium TA 1530. Particulars: cited from earlier work.
A further test relates to Saccharomyces cerevsiae. Particulars: cited from earlier work.
Test [1] relates to oxidative phosphorylation. Particulars: cited from earlier work; for uncoupling: higher concentrations than 10^-9 M; for stimulation of respiration and ATP production: low concentrations (10^-9 M).

The values below come from US4256832A, “Carcinogen and mutagen screening method and apparatus” (BioResearch Inc., priority 1978, dated 1981).

Consider `Nc1c2ccccc2nc2ccccc12` [9-amine acridine], for which the “oxygen uptake, dependence on mutagen level” value in the test on S. typhimurium TA 1535 is given as “dependent upon the level of the added known mutagen”.

Consider `O=C(O)[C@@H]1CCN1` [L-azetidine carboxylic acid], for which, in the test on S. typhimurium TA 1530 (mutant form of S. typhimurium TA 1530), the “toxicity to mutant form” value was “not toxic to its mutant form”. In the test on S. typhimurium TA 1530 (normal form of S. typhimurium TA 1530), the “toxicity to normal form” value was “toxic to the normal form”. Turning to `NC(N)=NOCC[C@H](N)C(=O)O.O=S(=O)(O)O` [cavanine sulfate], the “toxicity to mutant form” value in the test on Saccharomyces cerevsiae (mutant form of yeast) is recorded as “not to its mutant form”. The “toxicity to normal form” value in the test with Saccharomyces cerevsiae (normal form of yeast) is recorded as “toxic to the normal form”. Turning to `N[C@@H](Cc1cc(I)c(Oc2cc(I)c(O)c(I)c2)c(I)c1)C(=O)O` [thyroxine], in test [1], the uncoupling result is “uncouple at higher concentrations”; the “stimulation of respiration and ATP production” value is “stimulate respiration and ATP production”. As for `N[C@@H](Cc1cc(I)c(Oc2ccc(O)c(I)c2)c(I)c1)C(=O)O` [triiodothyronine], in test [1], the uncoupling entry is “uncouple at higher concentrations”; the “stimulation of respiration and ATP production” value is “stimulate respiration and ATP production”.
